Values quoted from earlier work as cited in patent publication US20050256112A1, “Combination of atypical antipsychotics and 5HT-1B receptor antagonists” (Pfizer Inc, priority 2004, published 2005).
Each block holds one compound with its values, some of them ahead of it.

Tests used:
[1] = background statement
[2] = in some mammals; background statement
white blood cell counts = details: background statement

SMILES: Cc1cc2c(s1)Nc1ccccc1N=C2N1CCN(C)CC1 [Olanzapine, 2-methyl-4-(4-methyl-1-piperazinyl)-10H-thieno [2,3-b][1,5] benzodiazepine]
- weight gain ([1]; in some cases): up to 1 pound per week

- cataract formation [2]: cause cataract formation
SMILES: OCCOCCN1CCN(C2=Nc3ccccc3Sc3ccccc32)CC1 [Quetiapine, 5-[2-(4-dibenzo[b,f][1,4]thiazepin-11-yl-1-piperazinyl)ethyoxy]ethanol]

SMILES: Cc1nc2n(c(=O)c1CCN1CCC(c3noc4cc(F)ccc34)CC1)CCCC2 [risperidone, 3-[2-[4-(6-fluoro-1,2-benzisoxazol-3-yl)piperidino]ethyl]-2-methyl-6,7,8,9-tetrahydro-4H-pyrido-[1,2-a]pyrimidin-4-one]
- weight gain (in words) [1]: minimal
- effect on white blood cell count (white blood cell counts): remains unaffected
